Measured values: US10889611B2, “Sialyltransferase inhibitors and uses thereof” (Academia Sinica, priority 2015, dated 2021)
Read-outs that look alike come from different tables or passages of the source. Marks after values point to notes of the source that are not given here.

Tests used:
[1] = target: T1, α2,3(N)-sialyltransferase ST3GALIII (Rattus norvegicus, UniProt Q02734); experiment: Sialyltransferase activity assay, ST3GALIII; assay type: biochemical
T1 construct: purchased Calbiochem
T1 sequence (Q02734 1-374): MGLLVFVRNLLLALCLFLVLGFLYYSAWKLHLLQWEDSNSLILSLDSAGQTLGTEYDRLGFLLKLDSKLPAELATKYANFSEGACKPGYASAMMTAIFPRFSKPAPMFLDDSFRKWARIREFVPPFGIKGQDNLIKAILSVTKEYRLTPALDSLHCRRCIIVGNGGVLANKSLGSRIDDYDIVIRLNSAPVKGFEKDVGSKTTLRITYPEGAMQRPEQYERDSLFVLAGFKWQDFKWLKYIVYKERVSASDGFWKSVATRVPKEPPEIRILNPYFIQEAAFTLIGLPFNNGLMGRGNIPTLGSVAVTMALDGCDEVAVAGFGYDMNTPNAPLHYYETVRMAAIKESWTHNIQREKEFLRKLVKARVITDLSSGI
Experimental: (§1) The enzymes analyzed in the present study included rat ST3Gal(I), rat ST3Gal(III), and human ST6Gal(I). Rat ST3Gal(I) and rat ST3Gal(Ill), were purchased from Calbiochem®, while human ST6Gal(I) was purchased from RnDSystems.com.
(§2) Sialyltransferase inhibition assay […] was performed as follows: Sialyltransferase activity was determined by measuring the level of the end product of sialylated saccharides with reverse-phase HPLC. The assay mixtures contained the following components: 200 mM MES buffer; 100 mM NaCl; 0.5 mM EDTA; 0.01% Triton X-100; 1.4 mU ST3GALI; 2.5 mM T-antigen; 1 mM CMP-Neu5Ac and different concentration of Sialyltransferase inhibitors to a total volume of 50 μl. The assay mixture was incubated at 37° C. for 15 mins and then quenched by heating up to 101′C for 10 mins. The sialylated product was resolved by reversed-phase HPLC. Kinetic data were obtained by fitting the initial rate data to the nonlinear regression equation.
as §2, with “mU ST6GALI; 25 μM Galβ1-4GlcNAc;” for “mU ST3GALI; 2.5 mM T-antigen;”, “to 101° C.” for “to 101′C”, “product is” for “product was”, “resolved with” for “resolved by”
(§3) Effects of the present compounds on the activity of sialyltransferase, including α2,3(N)-sialyltransferase ST3GALIII, α2,6(N)-sialyltransferases ST6GALI, and α2,3(O)-sialyltransferase ST3GALI, were determined in accordance with procedures described in the “Materials and Methods” section, and results are summarized in Table 1.

[2] = target: T2, α2,6(N)-sialyltransferases ST6GALI (Homo sapiens, UniProt P15907); experiment: Sialyltransferase inhibition assay, ST6GALI (reverse-phase HPLC); assay type: biochemical; conditions: for IC50: α2,6-N-link
T2 construct: purchased RnDSystems.com (R&D Systems)
T2 sequence (P15907 1-406): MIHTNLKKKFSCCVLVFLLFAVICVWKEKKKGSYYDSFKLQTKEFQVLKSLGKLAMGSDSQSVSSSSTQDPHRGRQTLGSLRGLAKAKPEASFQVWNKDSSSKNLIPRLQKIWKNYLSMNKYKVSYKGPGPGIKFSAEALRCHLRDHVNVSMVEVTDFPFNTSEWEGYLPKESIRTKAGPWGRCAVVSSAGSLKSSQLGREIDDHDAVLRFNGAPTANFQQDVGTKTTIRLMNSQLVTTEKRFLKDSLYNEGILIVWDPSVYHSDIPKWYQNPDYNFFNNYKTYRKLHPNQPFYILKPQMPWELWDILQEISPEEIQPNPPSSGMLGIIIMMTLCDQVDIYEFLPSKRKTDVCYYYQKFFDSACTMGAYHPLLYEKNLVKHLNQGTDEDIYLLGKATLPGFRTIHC
Experimental: as §1
as §2, with “mU ST6GALI; 25 μM Galβ1-4GlcNAc;” for “mU ST3GALI; 2.5 mM T-antigen;”, “to 101° C.” for “to 101′C”, “product is” for “product was”, “resolved with” for “resolved by”
as §3

[3] = target: T3, α2,3(O)-sialyltransferase ST3GALI (Rattus norvegicus, UniProt Q6H8N0); experiment: Sialyltransferase inhibition assay, ST3GALI (reverse-phase HPLC); assay type: biochemical; conditions: for inhibition at 500 µM: measured at 500 μM
T3 construct: purchased Calbiochem
T3 sequence (Q6H8N0 1-340): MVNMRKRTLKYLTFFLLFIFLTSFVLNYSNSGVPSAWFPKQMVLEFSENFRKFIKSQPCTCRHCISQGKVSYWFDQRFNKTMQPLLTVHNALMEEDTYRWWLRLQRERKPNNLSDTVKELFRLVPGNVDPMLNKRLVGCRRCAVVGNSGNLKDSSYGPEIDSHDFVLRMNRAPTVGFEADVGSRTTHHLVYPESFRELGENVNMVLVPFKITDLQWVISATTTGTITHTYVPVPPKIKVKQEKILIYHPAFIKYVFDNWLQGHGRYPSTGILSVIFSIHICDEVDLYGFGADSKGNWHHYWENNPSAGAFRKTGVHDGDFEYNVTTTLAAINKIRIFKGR
Experimental: as §1, §2, §3

[4] = system: MDA-MB-231 cells; experiment: Transwell migration assay, breast cancer cells; assay type: cell-based, human
Description: Migration assays were done using a transwell, in which a polycarbonate filter pre-coated with Matrigel (8-μm pores, Millicell; Millipore, Billerica, Mass.) was inserted therein. […] Cells that had migrated to the underside of the inserted filter were stained with hematoxylin solution. The cells in the upper side of the inserted membrane were rubbed with a cotton swab. The migrated cells on the underside were pictured in a 200× magnification field and quantified.

[5] = target: T1, α2,3(N)-sialyltransferase ST3GALIII; experiment: Sialyltransferase activity assay, ST3GALIII; assay type: biochemical; conditions: α2,3-N-link
[6] = system: primary melanoma cells (B16-F10/Luc cells); experiment: Primary melanoma-bearing C57BL mice; assay type: in vivo
Experimental: (§4) Six C57BL mice (3-6 weeks old) were subcutaneously or intravenously injected with 5×10^5 primary melanoma cells (i.e., B16-F10/Luc cells) on day 0 and allowed the tumor to grow for 7 days to create primary or metastatic melanoma model. Then, the test compound (e.g., FCW393, 10 mg/Kg, i.p.) was administered by intraperitoneal injection at the interval of 3 times per week, until day 26 in each animal model. Tumor sizes were measured using calipers at designated days, and tumor volume was calculated using the formula: volume=width^2×length×0.52. The average body weight (BW) of the animals was measured daily, and the concentration of the test compound(s) (i.e., FCW393) in i.p. injection was adjusted proportionally to the BW respectively at the indicated dosage and time. After treatment, mice were sacrified and their white blood cells (WBC), red blood cells (RBC), platelets (PLT), hemoglobin (HGB), hematocrit (HCT), mean corpuscular volume (MCV), mean corpuscular hemoglobin (MCH), and mean corpuscular hemoglobin concentration (MCHC) were respectively determined; their weights of lymph nodes, thymus, and spleen were measured; as well as the levels of aspartate aminotransferase (AST), analine aminotransferase (ALT), albumin, triglyceride, blood urea nitrogen (BUN), creatinine, and uric acid were measured.
In this example, effects of FCW393 (or compound 16) on animals implanted with primary melanoma cells were investigated, in which the body weight; the size of the tumor; the respective weights of lymph nodes, thymus, and spleen; the respective functions of liver, kidney, and vascular system; as well as the levels of inflammation and/or stress markers were determined. Results are illustrated in FIGS. 8-15.

[7] = system: metastatic melanoma (B16-F10/Luc cells); experiment: Metastatic melanoma-bearing C57BL mice; assay type: in vivo
Experimental: as §4

[8] = read-out: ST3GALI inhibition percentage

SMILES: C[C@H](CCC(=O)OCCOCCOCCOCCN=[N+]=[N-])C1CC[C@H]2[C@@H]3CC[C@@H]4C[C@H](OC(=O)[C@H](CC(=O)O)Nc5ccc([N+](=O)[O-])c6nonc56)CC[C@]4(C)[C@H]3CC[C@]12C (stereo partly drawn) [Compound 4, (3S)-4-(((3R,5R,8R,9S,10S,13R,14S)-17-((R)-1-azido-13-oxo-3,6,9,12-tetraoxaheptadecan-6-yl)-10,13-dimethylhexadecahydro-1H-cyclopenta[a]phenanthren-3-yl)oxy)-3-((7-nitrobenzo[c][1,2,5]oxadiazol-4-yl)amino)-4-oxobutanoic acid]
- selectivity ratio ST3GALI/ST3GALIII ([1]; calculated based on the concentration, 500 μM, of ST inhibitor used toward α2,3-O-ST3GALI, listed as 4 (FCW66)): >495^d
- selectivity ratio ST3GALI/ST3GALIII ([1]; calculated based on the concentration, 1 mM, of ST inhibitor used toward α2,3-O-ST3GALI, listed as 4 (FCW66)): (≤990)^e
- selectivity ratio ST3GALI/ST6GALI [2]: >102
- IC50 ([2]; IC50 (μM) ST6GALI): 4.9 ± 0.08 µM
- inhibition at 500 µM [3, 8]: 0%
- inhibition at 1000 µM ([3]; measured at 1 mM, read-out: ST3GALI inhibition percentage): 50%
- migration of MDA-MD-231 cells ([4]; 20 μM, FIG. 1): inhibited the migration
- IC50 ([4]; Homo sapiens, MDA-MB-231, breast cancer cells treated with 2-30 μM, transwell, 16 hours, read-out: IC50 on migration): 12 ± 0.13 µM
- IC50 ([5]; IC50 (μM) ST3GALIII): 1.01 ± 0.07 µM

SMILES: C[C@H](CCC(=O)OCCOCCOCCN=[N+]=[N-])C1CCC2C3CC[C@@H]4C[C@H](NC(=O)[C@H](CC(=O)O)Nc5ccc([N+](=O)[O-])c6nonc56)CC[C@]4(C)C3CC[C@@]21C (stereo partly drawn) [Compound 16, (3S)-4-(((3R,5R,10S,13R)-17-((R)-5-(2-(2-(2-azidoethoxy)ethoxy)ethoxy)-5-oxopentan-2-yl)-10,13-dimethylhexadecahydro-1H-cyclopenta[a]phenanthren-3-yl)amino)-3-((7-nitrobenzo[c][1,2,5]oxadiazol-4-yl)amino)-4-oxobutanoic acid]
- body weights of the test animals ([6]; 10 mg/Kg, i.p.): without significantly affecting
- tumor volume as compared with that of the control animal ([6]; 10 mg/Kg, i.p., 3 times per week): about 1/3
- weight of lymph node, thymus, or spleen ([6]; FIG. 9): no effects
- counts of white blood cells (WBC), increase ([6]; FIG. 10, panel A): 2 fold
- levels of RBC, PLT, HGB, HCT, MCV, MCH and MCHC ([6]; FIG. 10, panels B to H): no effects
- level of analine aminotransferase (ALT) ([6]; FIG. 11): did not affect
- level of aspartate aminotransferase (AST) ([6]; FIG. 11): reduce
- level of inflammation marker (albumin) ([6]; FIG. 11, panel C): no effect
- level of the stress marker (uric acid) ([6]; FIG. 11, panel G): slightly increased
- weight of lymph node, thymus, or spleen ([7]; FIG. 13): did not affect
- levels of WBC, RBC, platelets, HGB, HCT, MCV, MCH, and MCHC ([7]; FIG. 14): nor did it possess any significant effects
- level of inflammation marker or stress marker ([7]; FIG. 15): did not affect
- growth of tumor (bioluminescence IVIS images) ([7]; days 7 and 14, FIG. 12, panels A and B): suppress the growth of tumor
- melting point: 80 to 81 °C

SMILES: C[C@H](CCC(=O)OCCOCCOCCOCCOCCN=[N+]=[N-])C1CC[C@H]2[C@@H]3CC[C@@H]4C[C@H](OC(=O)[C@H](CC(=O)O)Nc5ccc([N+](=O)[O-])c6nonc56)CC[C@]4(C)[C@H]3CC[C@]12C (stereo partly drawn) [Compound 5, (3S)-4-(((3R,5R,8R,9S,10S,13R,14S)-17-((R)-1-azido-16-oxo-3,6,9,12,15-pentaoxaicosan-19-yl)-10,13-dimethylhexadecahydro-1H-cyclopenta[a]phenanthren-3-yl)oxy)-3-((7-nitrobenzo[c][1,2,5]oxadiazol-4-yl)amino)-4-oxobutanoic acid]
- selectivity ratio ST3GALI/ST3GALIII ([1]; calculated based on the concentration, 500 μM, of ST inhibitor used toward α2,3-O-ST3GALI): >516^d
- selectivity ratio ST3GALI/ST6GALI [2]: >99
- IC50 ([2]; IC50 (μM) ST6GALI): 5.03 ± 0.2 µM
- inhibition at 500 µM [3, 8]: 0%
- IC50 ([5]; IC50 (μM) ST3GALIII): 0.97 ± 0.14 µM

SMILES: C[C@H](CCC(=O)O)[C@H]1CC[C@H]2[C@@H]3CC[C@@H]4C[C@H](OC(=O)[C@@H](N)CC(=O)O)CC[C@]4(C)[C@H]3CC[C@]12C [Lith-O-Asp, reference compound]
- selectivity ratio ST3GALI/ST3GALIII ([1]; comparative controls with measured ST3GALI IC50): 3
- selectivity ratio ST3GALI/ST6GALI [2]: 3
- IC50 ([2]; read-out: IC50 (μM) ST6GALI): 15.78 ± 0.13 µM
- IC50 ([3]; α2,3-O-link): 39 ± 1.26 µM
- IC50 ([5]; read-out: IC50 (μM) ST3GALIII): 12 µM
